Columns and labels:
[1] = system: sensory panel of trained judges; experiment: Concentration response curve: sweetness intensity scored against sucrose reference standards, Beidler equation fit; assay type: in vivo, human; details: for Potency at 5 SEV: room temperature, P=SEV*10,000/C; for Beidler equation SEV=a*C/(b+C): constant b (concentration) / Beidler equation SEV=a*C/(b+C): constant a (maximum SEV): best fitting Beidler equation; for Beidler equation SEV=a*C/(b+C): constant b (concentration): C in ppm or mg/L; for Beidler equation SEV=a*C/(b+C): constant a (maximum SEV): SEV = % sucrose equivalent sweetness
Protocol: A blend composed of 80% purified mogroside-V (Chem Faces, CFS202202), 15% 11-oxo-mogroside-V (Chem Faces, CFS202201), and 5% mogroside IIIA-1 (Chem Faces, CFS202201) was diluted to six different concentrations (from 100 ppm to 650 ppm) in spring water (Ice Mountain, retail). For each solution, a set of five reference standards of sucrose dissolved in water in 0.5% (w/w) concentration increments was also prepared. Each concentration of the mogroside blend was evaluated by 6-8 trained judges. Samples were presented in 4-oz soufflé cups at room temperature, and the test sample was labeled with a random 3-digit code. Panelists tasted the blind-coded sample compared to the set of reference samples to determine the sweetness intensity score to the nearest 0.1 unit. Each concentration was evaluated in duplicate. The sweetness intensity scores were then plotted against the mogroside blend concentration to make a concentration response curve, and the best fitting Beidler equation was generated. […] is a 90% pure mogroside V containing about 6% 11-oxo mogroside-V. Five different concentrations of V90 (Huacheng Bio, LHGE-230401), ranging from 100 ppm to 500 ppm, were diluted in spring water (Ice Mountain, retail). Each dilution was presented to a panel of 7-8 judges experienced in evaluating sweeteners and was accompanied by a range of five sucrose solution reference standards bracketing the sweetness intensity of the test sample in 0.5% (w/w) increments. Panelists assigned a sweetness intensity score to each test sample, including blind duplicates, to the nearest 0.1 unit. All samples were served at room temperature in 4-oz soufflé cups with the test samples labeled with random 3-digit codes. Water and […] crackers were provided for rinsing between samples. Both individual mogrosides were also evaluated at five different concentrations in spring water (Ice Mountain, retail) for sweetness intensity. 11-oxo-mogroside was diluted to concentrations ranging from 200 ppm to 600 ppm and mogroside IIIA-1 was diluted to concentrations from 100 to 500 ppm. For each concentration, a set of five sucrose solution reference standards were prepared in 0.5% (w/w) increments to approximately bracket the sweetness intensity of the test sample. A panel of 6-8 trained judges evaluated each test sample in duplicate, accompanied by the corresponding reference standards, and assigned a sweetness intensity score to the sample to the nearest 0.1 unit. Samples were presented in 4-oz soufflé cups at room temperature, and the test sample was labeled with a random 3-digit code. The sweetness intensity scores were then plotted as a function of mogroside concentration to make a concentration response curve, and the best fitting Beidler equation was generated. P=SEV*10,000/C • where C is the concentration of the mogroside blend in ppm or mg/L and SEV is the % sucrose equivalent sweetness determined by sensory panel.

[2] = system: sensory panel of experienced judges; experiment: Descriptive analysis of sweetener attributes on a 15-cm line scale, low (0) to high (60); assay type: in vivo, human; details: about 6 SEV solution, 0=low, 60=high
From the text: The same samples described above were presented to a panel of 6-9 experienced judges for descriptive analysis. Solutions were blind-coded with random 3-digit codes and served at room temperature for evaluation. Panelists individually scored attributes of each sample, such as sweetness intensity, bitterness, astringency, and the presence of side flavors such as licorice or fruitiness. Scores were based on a 15-cm line scale marked with evenly spaced 5-point increments from low (0) to high (60). Samples were evaluated in duplicate. Water and […] crackers were provided for rinsing between samples. A solution of […] was made at 410 ppm in spring water (Ice Mountain, retail) to be about 6 SEV. A second solution was made at about 6 SEV of purified mogroside-V (Chem Faces, CFS202202) at 325 ppm. A panel of 7-8 trained judges evaluated the temporal properties and taste attributes of each sample, including blind duplicates, in the same manner described previously in the Mogroside Blend 80/15/5 Taste Quality sections. The panel also evaluated the intensity of several sensory attributes such as bitterness, astringency, caramel flavor, and fruitiness. The same 15-cm line scale was used for scoring, labeled from low (0) to high (60) with evenly spaced 5-point increments. The samples were served in 4-oz soufflé cups that were labeled with random 3-digit codes. Samples were evaluated at room temperature and included blind duplicates. Water and […] crackers were provided for rinsing between samples. A 400-ppm solution of V90 (Huacheng Bio, LHGE-230401) was tasted as a reference at the beginning of the descriptive analysis session for calibration verification among panelists.

[3] = system: sensory panel of trained judges; experiment: Temporal properties: onset of sweetness, time to maximum sweetness, decay after expectorating; assay type: in vivo, human; details: 600 ppm, about 6 SEV, in spring water
Protocol: Equi-sweet solutions at about 6 SEV were made in spring water (Ice Mountain, retail) of the following sweeteners: purified mogroside-V (Chem Faces, CFS202202), rebaudioside M (95%, Tate & Lyle, lot #1802-2302-1), rebaudioside A (95%, Tate & Lyle, 210617-01), and monk fruit (50% mogroside V, Tate & Lyle, 45GF220305). Another solution was prepared at about 6 SEV of a blend composed of 80% purified mogroside-V (Chem Faces, CFS202202), 15% 11-oxo-mogroside-V (Chem Faces, CFS202201), and 5% mogroside IIIA-1 (Chem Faces, CFS202201). The concentration of each solution can be found in Table 7.
A set of samples of each solution was evaluated by a panel of 7-9 trained judges. Panelists measured the time to onset of sweetness and time to reach maximum sweetness using a timer. Sweetness decay after expectorating was measured by rating sweetness intensity every 5 seconds on a 15-cm line scale graduated in evenly spaced 5-point increments and labeled low (0) to high (60). […] Blind duplicates were evaluated in a second panel under the same conditions.
A solution of V90 was made at 410 ppm in spring water (Ice Mountain, retail) to be about 6 SEV. […] A panel of 7-8 trained judges evaluated the temporal properties and taste attributes of each sample, including blind duplicates, in the same manner described previously in the Mogroside Blend 80/15/5 Taste Quality sections. […]

[4] = system: sensory panel of trained judges; details: 6 SEV solution of sucrose; cited from earlier work
[5] = in spring water, from Beidler curve

SMILES: C[C@H](CC[C@@H](O[C@@H]1O[C@H](CO[C@@H]2O[C@H](CO)[C@@H](O)[C@H](O)[C@H]2O)[C@@H](O)[C@H](O)[C@H]1O[C@@H]1O[C@H](CO)[C@@H](O)[C@H](O)[C@H]1O)C(C)(C)O)[C@H]1CC[C@@]2(C)[C@@H]3CC=C4[C@@H](CC[C@H](O[C@@H]5O[C@H](CO[C@@H]6O[C@H](CO)[C@@H](O)[C@H](O)[C@H]6O)[C@@H](O)[C@H](O)[C@H]5O)C4(C)C)[C@]3(C)[C@H](O)C[C@]12C [Mogroside V, mogroside V]
- Potency at 5 SEV [1, 5]: 185x
- times as sweet as sucrose at 5 SEV ([1]; in spring water, listed as purified Mog-V): ~200 times as sweet as sucrose
- times as sweet as sucrose at 5 SEV ([1]; in spring water, running text, listed as mogroside V): 185 times as sweet as sucrose
- times as sweet as sucrose at 5 SEV ([1]; in spring water, running text, listed as mogroside-V): about 185 times as sweet as sucrose
- Potency at 10 SEV ([1]; 10 SEV, in spring water, from Beidler curve, beyond tested concentrations): 131x
- Beidler equation SEV=a*C/(b+C): constant b (concentration) [1]: 920.8 ppm
- Beidler equation SEV=a*C/(b+C): constant a (maximum SEV) [1]: 22.03 SEV
- Astringent, average intensity score ([2]; listed as Mog·V): 2.5¤
- Bitterness, average intensity score ([2]; listed as Mog·V): 1.4¤
- Body, average intensity score ([2]; listed as Mog·V): 12.1¤
- Caramel, average intensity score ([2]; listed as Mog·V): 4.5¤
- Fruity, average intensity score ([2]; listed as Mog·V): 3.0¤
- Licorice, average intensity score ([2]; listed as Mog·V): 0.7¤
- Sweet Linger, average intensity score ([2]; listed as Mog·V): 14.3¤
- Sweetness, average intensity score ([2]; listed as Mog·V): 36.3¤

SMILES: C[C@H](CC[C@@H](O[C@@H]1O[C@H](CO[C@@H]2O[C@H](CO)[C@@H](O)[C@H](O)[C@H]2O)[C@@H](O)[C@H](O)[C@H]1O[C@@H]1O[C@H](CO)[C@@H](O)[C@H](O)[C@H]1O)C(C)(C)O)[C@H]1CC[C@@]2(C)[C@@H]3CC=C4[C@@H](CC[C@H](O)C4(C)C)[C@]3(C)[C@H](O)C[C@]12C [Mogroside IIIA-1, mogroside III-A1]
- Potency at 5 SEV [1, 5]: 71x
- Beidler equation SEV=a*C/(b+C): constant b (concentration) [1]: 139.9 ppm
- Beidler equation SEV=a*C/(b+C): constant a (maximum SEV) [1]: 6.00 SEV
- bitter taste still present after expectorating [3]: more than 60 seconds

SMILES: C=C1C[C@@]23CC[C@H]4[C@@](C)(CCC[C@@]4(C)C(=O)O[C@@H]4O[C@H](CO)[C@@H](O)[C@H](O)[C@H]4O)[C@@H]2CC[C@]1(O[C@@H]1O[C@H](CO)[C@@H](O)[C@H](O[C@@H]2O[C@H](CO)[C@@H](O)[C@H](O)[C@H]2O)[C@H]1O[C@@H]1O[C@H](CO)[C@@H](O)[C@H](O)[C@H]1O)C3 [Rebaudioside A, rebaudioside A]
- Astringent, average intensity score [2]: 3.7¤
- Bitterness, average intensity score [2]: 11.2¤
- Body, average intensity score [2]: 9.1¤
- Caramel, average intensity score [2]: 1.9¤
- Fruity, average intensity score [2]: 1.3¤
- Licorice, average intensity score [2]: 2.7¤
- Sweet Linger, average intensity score [2]: 9.6¤
- Sweetness, average intensity score [2]: 35.1¤

SMILES: OC[C@H]1O[C@@](CO)(O[C@H]2O[C@H](CO)[C@@H](O)[C@H](O)[C@H]2O)[C@@H](O)[C@@H]1O [sucrose]
- sweet linger decay time (typical value) [4]: 20 to 25 s

SMILES: C[C@H](CC[C@@H](O[C@@H]1O[C@H](CO[C@@H]2O[C@H](CO)[C@@H](O)[C@H](O)[C@H]2O)[C@@H](O)[C@H](O)[C@H]1O[C@@H]1O[C@H](CO)[C@@H](O)[C@H](O)[C@H]1O)C(C)(C)O)[C@H]1CC[C@@]2(C)[C@@H]3CC=C4[C@@H](CC[C@H](O[C@@H]5O[C@H](CO[C@@H]6O[C@H](CO)[C@@H](O)[C@H](O)[C@H]6O)[C@@H](O)[C@H](O)[C@H]5O)C4(C)C)[C@]3(C)C(=O)C[C@]12C [11-oxo-mogroside V]
- Potency at 5 SEV [1, 5]: 28x
- times as sweet as sucrose at 5 SEV ([1]; in spring water, running text, listed as 11-oxo mogroside-V): approximately 28 times as sweet as sucrose
- times as sweet as sucrose at 5 SEV ([1]; in spring water, running text, listed as 11-oxo-mogroside-V): 28 times as sweet as sucrose
- Beidler equation SEV=a*C/(b+C): constant b (concentration) [1]: 546.3 ppm
- Beidler equation SEV=a*C/(b+C): constant a (maximum SEV) [1]: 6.56 SEV

SMILES: C=C1C[C@@]23CC[C@H]4[C@@](C)(CCC[C@@]4(C)C(=O)O[C@@H]4O[C@H](CO)[C@@H](O)[C@H](O[C@@H]5O[C@H](CO)[C@@H](O)[C@H](O)[C@H]5O)[C@H]4O[C@@H]4O[C@H](CO)[C@@H](O)[C@H](O)[C@H]4O)[C@@H]2CC[C@]1(O[C@@H]1O[C@H](CO)[C@@H](O)[C@H](O[C@@H]2O[C@H](CO)[C@@H](O)[C@H](O)[C@H]2O)[C@H]1O[C@@H]1O[C@H](CO)[C@@H](O)[C@H](O)[C@H]1O)C3 [Rebaudioside M, rebaudioside M]
- Astringent, average intensity score [2]: 2.0¤
- Bitterness, average intensity score [2]: 1.7¤
- Body, average intensity score [2]: 11.2¤
- Caramel, average intensity score [2]: 3.5¤
- Fruity, average intensity score [2]: 1.6¤
- Licorice, average intensity score [2]: 1.0¤
- Sweet Linger, average intensity score [2]: 17.3¤
- Sweetness, average intensity score [2]: 36.4¤

— patent publication US20240229055A9, “MOGROSIDE COMPOSITIONS AND METHODS OF PRODUCING SAME” (Elo Life Systems, priority 2022, published 2024)
